# Laboratory results from patent US20260091012A1, “Methods Of Treating Meduloblastoma With Thyroid Hormone” (Institute For Cancer Research d/b/a The Research Institute …, priority 2022, published 2026).
# Assays:
# RCMB28 cells = test system: RCMB28 cells
# Procedure: (§1) GDC0449 (50 mg/kg) diluted using MCT and administrated to mice by oral gavage once a day. […] Log-rank survival analyses were performed in GraphPad Prism 9.
# (§2) MB cells were stereotaxically injected into the cerebellum of 6- to 8-week-old SCID mice. Before transplantation, MB cells were infected with lentivirus carrying firefly luciferase for 24 hours. For transplantation with MB cells after the virus infection, the cell suspension was centrifuged at 1000 rpm for 5 minutes to remove the supernatant. 1×10^6 cells (based on Trypan blue staining) were injected into the cerebellum of each mouse. Animals were monitored weekly using in vivo bioluminescence imaging.
# G3-MB PDOXs were generated by intracranial transplantation of RCMB28 cells transduced with a luciferase expressing construct.
# [1] = test system: Shh type PDX-luciferase cells; test: Human shh type MB PDX-luciferase growth in cerebellum of SCID mice (bioluminescence); type: in vivo; conditions: SCID mice treated by T3 for 3 weeks vs untreated controls
# Procedure: as §1, §2
# D283 = test: EdU incorporation, proliferation of human MB group3 cell line D283; type: cell-based; conditions: D283, T3, 72 hours
# Text: (§3) MB cells were isolated from Math1-Cre/Ptch1^fl/fl, Math1-Cre/Ptch1^fl/fl/Cas9 and SmoM2 tumor-bearing mice at 6 to 8 weeks of age, respectively. Tumor tissue was dissociated in a papain solution to obtain a single-cell suspension and then centrifuged through a 35% and 65% Percoll gradient. Cells from the 35% to 65% interface were suspended in Dulbecco's PBS (DPBS) plus 0.5% BSA. Cells were then suspended in NB-B22 (B22 supplement followed protocol in Jacob Hanna's lab) and plated on poly-D-lysine (PDL)-coated coverslips (BD Biosciences). D283, D341 and MB-shh cell lines were cultured in DMEM with 10% fetal bovine serum, 1% Pen/Strep and 2 mM L-glutamine (Invitrogen).
# (§4) The EdU incubated cells were cultured at 1 μM in culture medium for 1 hour. 4% PFA was used to fix the cells for 10 minutes. The cells were incubated with the staining solution for 20 minutes in the dark. The cells were washed with PBST for 5 minutes/time for 3 times.
# (§5) The percentage of EdU+ cells in the culture was quantified (see, FIG. 6, Panel A). […] The percentage of EdU+ cells in the culture was quantified (see, FIG. 6, Panel B). […] The percentage of EdU+ cells in the culture were quantified (see, FIG. 6, Panel C). […] Thus, thyroid hormone may be used to treat different type of medulloblastoma.
# SmoM2 tumor mice = test: Survival and tumor markers in SmoM2 tumor mice; type: in vivo, mouse
# Procedure: (§6) Math1-Cre mice, Ptch1^fl/fl mice, R26-SmoM2 mice, Math1-CreER mice, CAG-Cas9 mice and were purchased from the Jackson Laboratory. All mice were bred and genotyped as recommended by the Jackson Laboratory. CB17/SCID mice were bred in the Fox Chase Cancer Center Laboratory Animal Facility (LAF).
# as §1
# Conversely, pHH3, a cell proliferation maker, was decreased in T3-treated mice tumor tissues (see, FIG. 5, Panel B).
# MB cells = test: Immunostaining of differentiation marker MAP2 in MB cells; type: cell-based, mouse; conditions: MB cells treated by T3 for 48 hours
# Procedure: Immunofluorescent staining of cells was carried out according to standard methods. Briefly, cells were blocked and permeabilized for 1 hour with PBS containing 0.1% Triton X-100 and 10% normal goat serum, stained with primary antibodies (1:400) overnight at 4° C. and incubated with secondary antibodies (1:500) for 1 hour. Cells were counterstained with DAPI and mounted with Fluoromount-G (Southern Biotech) before being visualized using a Nikon Eclipse Ti microscope.
# [2] = test system: MB cells isolated from Math1-Cre/Ptch1^fl/fl tumor mice; test: Cell Counting Kit-8 (CCK8) assay of MB cells, T3 and cisplatin; type: cell-based, mouse
# Procedure: MB cells were treated with vehicle (DMSO) as a control. […] The survival of MB cells was measured by Cell Counting Kit-8 (CCK8) following the treatment.
# MB ptch−/− cells = test: EdU incorporation, proliferation of MB ptch−/− cells; type: cell-based, mouse; conditions: NB-B22 cultured MB ptch−/− cells, different concentrations of T3, 48 hours; inhibition concentration dependent
# Text: as §3, §1, §4
# The inhibition was concentration dependent. The percentage of EdU+ cells in the culture were quantified (see, FIG. 1, Panel B). DAPI was used to counterstain cell nuclei.
# Group3 (Ms)MB cells = test: EdU incorporation, proliferation of MB group3 (Mouse) cells; type: cell-based; conditions: T3, 72 hours
# Procedure: as §4, §5
# [3] = test system: Math1-Cre/Ptch1^fl/fl tumor mice; test: Survival and tumor markers in Math1-Cre/Ptch1fl/fl tumor mice; type: in vivo, mouse
# Procedure: as §6, §1
# D341 = test: EdU incorporation, proliferation of human MB group3 cell line D341; type: cell-based; conditions: D341, T3, 72 hours
# Text: as §3, §4, §5
# [4] = T3 200 ng/g i.p. twice a day vs without T3
# [5] = T3-treated mice, immunohistochemistry
SMILES,"survival of recipient mice (RCMB28 cells; T3 i.p. compared with PBS treatment, p<0.01)","tumor progression in recipient mice (RCMB28 cells; T3 i.p. vs PBS, after tumors were established)","median survival (RCMB28 cells; T3 i.p., PBS treatment 15 days, p<0.01)",MB growth (in vivo bioluminescence) [1],proliferation of group3 tumor cells (percentage of EdU+ cells) (D283),mice survival (SmoM2 tumor mice; [4]),NeuN (differentiation marker) expression in tumor tissues (SmoM2 tumor mice; [5]),pHH3 (cell proliferation marker) in tumor tissues (SmoM2 tumor mice; [5]),MAP2 expression (differentiation marker) (MB cells),MB cell proliferation (CCK8) ([2]; T3 alone at two concentrations vs vehicle (DMSO)),proliferation of medulloblastoma cells (percentage of EdU+ cells) (MB ptch−/− cells),proliferation of group3 tumor cells (percentage of EdU+ cells) (Group3 (Ms)MB cells),"mice survival [3, 4]",tumor progression in vivo ([3]; T3-treated mice),"NeuN (differentiation marker) expression in tumor tissues [3, 5]","pHH3 (cell proliferation marker) in tumor tissues [3, 5]",proliferation of group3 tumor cells (percentage of EdU+ cells) (D341),cell proliferation / survival of MB cells (CCK8) ([2]; cisplatin alone at seven different concentrations vs vehicle (DMSO))
"N[C@@H](Cc1cc(I)c(Oc2ccc(O)c(I)c2)c(I)c1)C(=O)O [T3, triiodothyronine]",significantly prolonged,significantly repressed,undefined,significantly inhibited,significantly inhibited,prolonged,enhanced expression,decreased,increased,decreased,significantly inhibited,significantly inhibited,prolonged,repressed tumor progression,enhanced expression,decreased,significantly inhibited,–
N.N.[Cl][Pt][Cl] [cisplatin],–,–,–,–,–,–,–,–,–,–,–,–,–,–,–,–,–,inhibited cell proliferation significantly except 31.23 nM and 62.5 nM
